Test results published in publication PMC9841524, “Structure-Based Rational Design of Small α-Helical Peptides with Broad-Spectrum Activity against Multidrug-Resistant Pathogens” (Journal of Medicinal Chemistry, 2022).

Test system: S. aureus (ATCC 29213)
Assay: MIC, standard microtiter dilution (CLSI)
Format: cell-based
Conditions: broth microdilution (CLSI), CAMHB, 10^6 CFU/mL, 37 °C, 24 h; highest MIC of three independent experiments in triplicate
How it was run: (§1)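 Broth microdilution per CLSI: overnight cultures diluted in cation-adjusted Mueller Hinton Broth to 10^6 CFU/mL, mixed with 2-fold serial peptide dilutions, incubated 37 °C for 24 h. MIC = lowest peptide concentration inhibiting growth. Three independent assays in triplicate.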

Substance | MIC, S. aureus (ATCC 29213) [µg/mL]
Ac-KWAKKWAKWWKK-NH2 [6d] | 50
Ac-KWIKKWIKWWKK-NH2 [7d] | 6.2
Ac-KWLKKWLKWWKK-NH2 [8d] | 3.1

Same assay, conditions: value in parentheses (μM); broth microdilution (CLSI), CAMHB, 37 °C, 24 h

Substance | MIC, S. aureus (ATCC 29213) [µM]
Ac-KWAKKWAKWWKK-NH2 [6d] | 29.15
Ac-KWIKKWIKWWKK-NH2 [7d] | 3.45
Ac-KWLKKWLKWWKK-NH2 [8d] | 1.72

Test system: E. coli (ATCC 25922)
Assay: not given
Conditions: broth microdilution (CLSI), CAMHB, 10^6 CFU/mL, 37 °C, 24 h; highest MIC of three independent experiments in triplicate
How it was run: as §1

Substance | MIC, E. coli (ATCC 25922) [µg/mL]
Ac-KWAKKWAKWWKK-NH2 [6d] | 100
Ac-KWIKKWIKWWKK-NH2 [7d] | 12.5
Ac-KWLKKWLKWWKK-NH2 [8d] | 6.2

Same assay, conditions: value in parentheses (μM); broth microdilution (CLSI), CAMHB, 37 °C, 24 h

Substance | MIC, E. coli (ATCC 25922) [µM]
Ac-KWAKKWAKWWKK-NH2 [6d] | 58.30
Ac-KWIKKWIKWWKK-NH2 [7d] | 6.95
Ac-KWLKKWLKWWKK-NH2 [8d] | 3.45

Test system: MRSA (ATCC BAA-1556)
Assay: not given
Conditions: broth microdilution (CLSI), CAMHB, 10^6 CFU/mL, 37 °C, 24 h; highest MIC of three independent experiments in triplicate
How it was run: as §1

Substance | MIC, MRSA (ATCC BAA-1556) [µg/mL]
Ac-KWAKKWAKWWKK-NH2 [6d] | 100
Ac-KWIKKWIKWWKK-NH2 [7d] | 6.2
Ac-KWLKKWLKWWKK-NH2 [8d] | 6.2

Same assay, conditions: value in parentheses (μM); broth microdilution (CLSI), CAMHB, 37 °C, 24 h

Substance | MIC, MRSA (ATCC BAA-1556) [µM]
Ac-KWAKKWAKWWKK-NH2 [6d] | 58.30
Ac-KWIKKWIKWWKK-NH2 [7d] | 3.45
Ac-KWLKKWLKWWKK-NH2 [8d] | 3.45

Test system: P. aeruginosa (ATCC 27883)
Assay: MIC, standard microtiter dilution (CLSI)
Format: cell-based, Pseudomonas aeruginosa
Conditions: broth microdilution (CLSI), CAMHB, 10^6 CFU/mL, 37 °C, 24 h; highest MIC of three independent experiments in triplicate
How it was run: as §1

Substance | MIC, P. aeruginosa (ATCC 27883) [µg/mL]
Ac-KWAKKWAKWWKK-NH2 [6d] | 100
Ac-KWIKKWIKWWKK-NH2 [7d] | 12.5
Ac-KWLKKWLKWWKK-NH2 [8d] | 6.2

Same assay, conditions: value in parentheses (μM); broth microdilution (CLSI), CAMHB, 37 °C, 24 h

Substance | MIC, P. aeruginosa (ATCC 27883) [µM]
Ac-KWAKKWAKWWKK-NH2 [6d] | 58.30
Ac-KWIKKWIKWWKK-NH2 [7d] | 6.95
Ac-KWLKKWLKWWKK-NH2 [8d] | 3.45

Test system: K. pneumoniae (ATCCBAA-1705)
Assay: MIC, standard microtiter dilution (CLSI)
Format: cell-based, Klebsiella pneumoniae
Conditions: broth microdilution (CLSI), CAMHB, 10^6 CFU/mL, 37 °C, 24 h; highest MIC of three independent experiments in triplicate
How it was run: as §1

Substance | MIC, K. pneumoniae (ATCCBAA-1705) [µg/mL]
Ac-KWAKKWAKWWKK-NH2 [6d] | 100
Ac-KWIKKWIKWWKK-NH2 [7d] | 25
Ac-KWLKKWLKWWKK-NH2 [8d] | 12.5

Same assay, conditions: value in parentheses (μM); broth microdilution (CLSI), CAMHB, 37 °C, 24 h

Substance | MIC, K. pneumoniae (ATCCBAA-1705) [µM]
Ac-KWAKKWAKWWKK-NH2 [6d] | 58.30
Ac-KWIKKWIKWWKK-NH2 [7d] | 13.89
Ac-KWLKKWLKWWKK-NH2 [8d] | 6.95

Test system: human red blood cells (hRBCs)
Assay: Hemolytic assay
Format: cell-based
Conditions: hRBC suspension 4% in PBS, 2 h, 37 °C, hemoglobin release at 567 nm; 1% Triton X-100 = 100%
How it was run: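 Peptides in 2-fold serial dilutions mixed 1:1 with 4% hRBC suspension in PBS and held 2 h at 37 °C unshaken. Hemoglobin release in supernatant read at 567 nm; % hemolysis scaled between PBS (0%) and 1% Triton X-100 (100%).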

Substance | HC50 (concentration at which 50% hemolysis was observed) [µg/mL]
Ac-KWAKKWAKWWKK-NH2 [6d] | 345
Ac-KWIKKWIKWWKK-NH2 [7d] | 160
Ac-KWLKKWLKWWKK-NH2 [8d] | 145

Same assay, conditions: value in parentheses (μM); hRBC 4% in PBS, 2 h, 37 °C, 567 nm

Substance | HC50 (concentration at which 50% hemolysis was observed) [µM]
Ac-KWAKKWAKWWKK-NH2 [6d] | 201.15
Ac-KWIKKWIKWWKK-NH2 [7d] | 88.92
Ac-KWLKKWLKWWKK-NH2 [8d] | 80.59

Test system: not listed separately
Assay: Relative hydrophobicity as RP-HPLC retention time
Format: physicochemical
Conditions: chromatographic, Phenomenex Luna C18 4 μm 150 × 4.6 mm, linear AB gradient 1% acetonitrile/min, 0.3 mL/min, A water 0.1% TFA, B acetonitrile 0.1% TFA, 25 °C
Method: The purity analysis of the peptides was conducted on a RP-HPLC system (Shimadzu; LC-20ADXR) by using a Phenomenex (Luna) analytical C18 column (4 μm, 150 × 4.6 mm). The mass of the purified peptides was determined in the positive-ion mode using Q-TOF LC/MS (Compass Hystar 4.1, Bruker, USA). The purity (>95%) and mass data of all the synthesized peptides are provided in the Supporting Information.
8. Comparative Hydrophobicity analysis
The purity of all synthesized peptides was determined using reverse phase analytical HPLC
(Shimadzu; LC-20ADXR). Below mentioned are the conditions used to conduct the purity
Column: Phenomenex (Luna), 4 um, C18, 150 × 4.6 mm
Mobile Phase: Buffer A-Water containing 0.1% TFA,
Buffer B-Acetonitrile containing 0.1% TFA
Figure S52. HPLC chromatogram of 6a.
(1 picture or pasted object on this page, not shown here)

Substance | tR, RP-HPLC retention time (measure of overall hydrophobicity) [min]
Ac-KWAKKWAKWWKK-NH2 [6d] | 32.81
Ac-KWIKKWIKWWKK-NH2 [7d] | 38.75
Ac-KWLKKWLKWWKK-NH2 [8d] | 39.25

Test system: not listed separately
Assay: CD spectroscopy, helicity;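 as to % of helicity induced by Liposomes: share of the total helicity with liposomes gained over the same peptide in PBS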;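 as to % of helicity induced by TFE: share of the total helicity in TFE gained over the same peptide in PBS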
Format: physicochemical
Set-up: key to Δ[θ]222 induced by TFE / Δ[θ]222 induced by Liposomes: mean residue molar ellipticity, mdeg cm2/(dmol × res)
Conditions: CD at 222 nm, 25 °C, aqueous buffer containing 50% TFE
Method: The CD spectra of peptides were recorded using a Jasco J-1500 CD spectrophotometer (Jasco, Easton, MD) at 25 °C with a 1 mm path length cell. Wavelengths from 190 to 260 nm were scanned with 1.0 nm step resolution, 100 nm/min speed, 0.4 s response time, and 1 nm bandwidth. CD spectra of the peptides were collected and averaged over three scans in 10 mM sodium phosphate buffer (pH 7.2), helix-inducing solvent 50% TFE (v/v), and bacterial mimic liposomes (75 μM lipid). Spectra were corrected by subtracting a baseline spectrum containing only buffer or 50% TFE or liposomes. The mean residue molar ellipticity was calculated using the formula [drawing 3] where Ab222 is the absorbance observed at 222 nm, MRW is the mean residue molecular weight, C is the concentration in mg/mL, and L is the path length.
Table S1. RP-HPLC retention times and CD spectroscopy analysis of the selected peptides Peptide tR (min)a [θ]222b Δ[θ]222 induced by % of helicity inducedc by PBS TFE Liposomes TFE Liposomes TFE Liposomes […]
atR (min) denotes the retention time at 25°C by RP-HPLC. bThe mean residue molar ellipticity [θ] 222 (mdeg cm2/(dmol × res)) at 222 nm was measured at 25 °C in phosphate buffer saline (PBS, pH 7.0), in aqueous buﬀer containing 50% TFE (TFE), or in presence of bacterial membrane mimicking liposomes (peptide:lipid […]
c% helix induced is the increase in the molar ellipticity at 222 nm (in percentage) of a peptide in the presence of TFE or liposomes.

Substance | [θ]222 mean residue molar ellipticity, TFE
Ac-KWAKKWAKWWKK-NH2 [6d] | -18432 mdeg cm2/(dmol × res)
Ac-KWIKKWIKWWKK-NH2 [7d] | -11272 mdeg cm2/(dmol × res)
Ac-KWLKKWLKWWKK-NH2 [8d] | -16759 mdeg cm2/(dmol × res)

Same assay, conditions: CD at 222 nm, 25 °C, bacterial membrane mimicking liposomes, peptide:lipid molar ratio 1:1.05

Substance | [θ]222 mean residue molar ellipticity, Liposomes
Ac-KWAKKWAKWWKK-NH2 [6d] | -24274 mdeg cm2/(dmol × res)
Ac-KWIKKWIKWWKK-NH2 [7d] | -19755 mdeg cm2/(dmol × res)
Ac-KWLKKWLKWWKK-NH2 [8d] | -24786 mdeg cm2/(dmol × res)

Same assay, conditions: CD at 222 nm, 25 °C, phosphate buffer saline pH 7.0

Substance | [θ]222 mean residue molar ellipticity, PBS
Ac-KWAKKWAKWWKK-NH2 [6d] | -13464 mdeg cm2/(dmol × res)
Ac-KWIKKWIKWWKK-NH2 [7d] | -3826 mdeg cm2/(dmol × res)
Ac-KWLKKWLKWWKK-NH2 [8d] | -10222 mdeg cm2/(dmol × res)

Same assay, conditions: difference to PBS; 50% TFE

Substance | Δ[θ]222 induced by TFE
Ac-KWAKKWAKWWKK-NH2 [6d] | -4968
Ac-KWIKKWIKWWKK-NH2 [7d] | -7446
Ac-KWLKKWLKWWKK-NH2 [8d] | -6537

Same assay, conditions: difference to PBS; bacterial membrane mimicking liposomes

Substance | Δ[θ]222 induced by Liposomes
Ac-KWAKKWAKWWKK-NH2 [6d] | -10810
Ac-KWIKKWIKWWKK-NH2 [7d] | -15929
Ac-KWLKKWLKWWKK-NH2 [8d] | -14564

Same assay, conditions: increase in molar ellipticity at 222 nm in the presence of 50% TFE

Substance | % of helicity induced by TFE [%]
Ac-KWAKKWAKWWKK-NH2 [6d] | 26.95
Ac-KWIKKWIKWWKK-NH2 [7d] | 66.05
Ac-KWLKKWLKWWKK-NH2 [8d] | 39.00

Same assay, conditions: increase in molar ellipticity at 222 nm in the presence of liposomes

Substance | % of helicity induced by Liposomes [%]
Ac-KWAKKWAKWWKK-NH2 [6d] | 44.53
Ac-KWIKKWIKWWKK-NH2 [7d] | 80.63
Ac-KWLKKWLKWWKK-NH2 [8d] | 58.75
